How the values were obtained:
[1] = test system: allergen-induced accumulation of leukocytes into the lung; assay: OVA-induced asthma mouse model: bronchoalveolar lavage (BAL) total and differential cell counts; type: in vivo, C57BL/6 mice; settings: for increase of total BAL cell counts vs control diet: single-supplement diets (0.14% cis-9, trans-11 CLA or 0.21% VA), BAL 6 days after intranasal OVA challenge, vs AIN93G control; for increase of accumulation of eosinophils in BAL vs control diet: single-supplement diets, BAL 6 days after OVA challenge, not significant; for effect on leukocyte infiltration into the airway lumen: summary statement
Protocol: (§1) Eight to nine week old male and female C57BL/6 mice (University of Auckland, New Zealand) were kept on an ovalbumin (OVA)-free normal mouse chow diet from weaning up until they were assigned to a particular diet (control or experimental diet). Each diet group (n=6) contained an equal number of male and female mice. Throughout the study period mice were kept in an air-conditioned room with controlled humidity, temperature, and a 12h light:dark cycle.
(§2) Healthy control mice were maintained on an unmodified AIN-93G diet. Soybean oil (which contains no CLA) was the dietary fat source in the AIN-93G diet. The final fat content of all treatment diets used in the Examples was maintained at the same level as the fat content of the control AIN-93G diet by reducing the soybean oil content of the treatment or control diets as required. Fresh diet was provided biweekly, and mice had free access to food and water throughout the study.
Bronchoalveolar lavage was performed immediately after euthanasia by flushing 1 ml of PBS containing 1% heat inactivated fetal calf serum (lavage buffer) thrice through the lung and airways of mice via the cannulated trachea. The recovered BAL was pooled for each animal, centrifuged at 1,500 rpm at 4° C., and the supernatant stored at −80° C. The cell pellets were resuspended in 1 ml of lavage buffer, and total cell numbers were counted using a hemocytometer. BAL cells were centrifuged onto poly-L-lysine-coated glass slides using a cytospin, and stained with Diff-Quik stain (Dade Behring Inc. USA). Differential cellular counts were made by counting ≧300 cells under light microscopy (Nikon E200 microscope), using standard morphological criteria.
Data are expressed as the mean±SEM, and statistical significance was determined by the Student's t test. A value of P<0.05 was taken as significant.

[2] = test system: OVA-induced asthma; assay: OVA-induced asthma mouse model: lung histopathology score and mucus index (alcian blue-PAS sections); type: in vivo, C57BL/6 mice; settings: summary statement; for effect on lung pathology: fed individually
Protocol: as §1, §2

[3] = test system: IL-5; assay: IL-5 in BAL fluid by ELISA after allergen challenge; type: in vivo, C57BL/6 mice; settings: vs AIN-93G control
Description: The levels of IL-5 and eotaxin in the BAL fluid were quantitated by ELISA using a Quantikine mouse IL-5 ELISA kit and a mouse eotaxin Quantikine ELISA kit (R&D Systems, MN), respectively, according to the manufacturers' instructions. The detection limits were 3 pg/ml for eotaxin and 7 pg/ml for IL-5.
IL-5 and eotaxin produced by a variety of different cell types in the sensitized lung play key roles in asthma by controlling the development and release of eosinophils from the bone marrow, and their accumulation, activation and survival in the lung (Walsh et al., 2005; Shinagawa et al., 2003). Challenge with allergen led to marked increases in the levels of IL-5 and eotaxin (data not shown) in the BAL fluid of control mice fed the AIN93G diet (FIG. 3).

[4] = mice, two week feeding period; cited from earlier work
[5] = humans; cited from earlier work
[6] = Blood triglyceride levels (Accutrend GCT meter); settings: diet with 0.21% VA; P<0.05; data not shown

Structure (SMILES) | increase of total BAL cell counts vs control diet [1] [%] | increase of accumulation of eosinophils in BAL vs control diet [1] [%] | effect on leukocyte infiltration into the airway lumen [1] | effect on lung pathology [2] | reduction of IL-5 in BAL fluid vs control diet [3] [%] | VA consumed retained as cis-9, trans-11 CLA in its triglyceride form [4] [%] | average conversion rate of VA to cis-9, trans-11 CLA [5] [%] | increase of blood triglyceride levels [6] [%] | increase in monocytes/macrophages in BAL vs control diet ([1]; 0.14% cis-9, trans-11 CLA diet, P=0.05) [%] | inhibition of mucus hypersecretion (significance) [2]
CCCCCC/C=C/CCCCCCCCCC(=O)O [VA, trans 11-octadecenoic acid] | 94 | 270 | increased | no significant effect | 11 | ~12 | ~19 | 59 | – | –
CCCCCC/C=C/C=C\CCCCCCCC(=O)O [cis-9, trans-11 CLA, cis-9, trans-11 conjugated linoleic acid] | 43 | 69 | increased | no significant effect | 21 | – | – | – | 35 | significance was not achieved

From patent publication US20090048339A1, “COMPOSITIONS OF CIS-9, TRANS-11 CONJUGATED LINOLEIC ACID AND VACCENIC ACID AND USES THEREOF” (FONTERRA CORPORATE RESEARCH AND DEVELOPMENT LIMITE, priority 2005, published 2009)
